Data reported in US11427548B2 (Arvinas Operations, Inc., priority 2015, dated 2022).
Read-outs that look alike come from different tables or passages of the source.

Molecular target: T1, Androgen Receptor (Homo sapiens, UniProt P10275)
T1 construct: endogenous in cells; host or cells: VCaP cells
T1 sequence (P10275 1-920): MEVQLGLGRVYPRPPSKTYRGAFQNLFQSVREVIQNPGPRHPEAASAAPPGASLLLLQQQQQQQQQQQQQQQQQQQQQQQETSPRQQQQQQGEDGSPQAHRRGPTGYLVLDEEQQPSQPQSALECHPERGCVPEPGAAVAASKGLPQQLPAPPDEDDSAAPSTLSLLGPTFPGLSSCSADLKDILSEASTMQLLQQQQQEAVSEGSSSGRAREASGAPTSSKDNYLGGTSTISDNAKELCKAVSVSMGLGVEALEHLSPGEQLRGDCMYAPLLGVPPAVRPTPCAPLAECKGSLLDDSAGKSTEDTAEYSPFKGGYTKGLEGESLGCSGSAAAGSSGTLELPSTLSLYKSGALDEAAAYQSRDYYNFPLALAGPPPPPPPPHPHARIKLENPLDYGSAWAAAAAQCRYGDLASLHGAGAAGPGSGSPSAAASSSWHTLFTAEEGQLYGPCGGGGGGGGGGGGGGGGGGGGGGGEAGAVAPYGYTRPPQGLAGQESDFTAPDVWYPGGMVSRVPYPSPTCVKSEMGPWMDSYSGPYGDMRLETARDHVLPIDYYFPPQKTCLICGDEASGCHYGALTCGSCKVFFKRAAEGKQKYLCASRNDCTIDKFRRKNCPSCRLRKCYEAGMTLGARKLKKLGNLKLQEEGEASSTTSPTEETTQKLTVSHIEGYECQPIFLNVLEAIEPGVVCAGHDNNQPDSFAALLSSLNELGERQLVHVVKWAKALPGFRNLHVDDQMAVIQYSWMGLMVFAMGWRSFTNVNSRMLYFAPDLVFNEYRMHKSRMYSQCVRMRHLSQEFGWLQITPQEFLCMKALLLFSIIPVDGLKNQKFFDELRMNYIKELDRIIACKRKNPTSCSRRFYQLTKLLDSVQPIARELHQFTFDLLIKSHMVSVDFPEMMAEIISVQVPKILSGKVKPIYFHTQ
Assay: Androgen Receptor ELISA assay (PathScan AR ELISA) in VCaP cells: AR degradation, Dmax and DC50
Assay type: cell-based
Outline: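 After 24 h exposure of VCaP cells (charcoal-stripped serum, 0.1 nM R1881 agonist, 0.1% DMSO) to seven half-log compound concentrations, residual AR in lysates was measured by PathScan ELISA (TMB absorbance, 450 nm). Cells were plated at 30,000/well and grown at least 3 days beforehand.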

[1] = read-out: VCaP DC50; VCaP cells; Table 36
[2] = VCaP cells; Table 36; read-out: VCaP DC50
[3] = VCaP, VCaP cells; Table 36; read-out: VCaP Dmax (%)

Row | DC50 [2] | Dmax [3] | VCaP Dmax (%) (VCaP cells; Table 36) | SMILES | Dmax (VCaP, read-out: VCaP Dmax (%)) | DC50 [1]
1 |  |  |  | Cc1ncsc1-c1ccc([C@H](C)NC(=O)[C@@H]2C[C@@H](O)CN2C(=O)[C@@H](NC(=O)COCCCOCCCCCNc2ccc(N3C(=S)N(c4ccc(C#N)c(C(F)(F)F)c4)C(=O)C3(C)C)cn2)C(C)(C)C)cc1 [Example 618, (2S,4R)-1-((S)-2-(2-(3-((5-((5-(3-(4-cyano-3-(trifluoromethyl)phenyl)-5,5-dimethyl-4-oxo-2-thioxoimidazolidin-1-yl)pyridin-2-yl)amino)pentyl)oxy)pro-poxy)acetamido)-3,3-dimethylbutanoyl)-4-hydroxy-N-((S)-1-(4-(4-methylthiazol-5-yl)phenyl)ethyl)pyrrolidine-2-carboxamide] | 51 to 70% | < 50 nM
2 |  |  |  | Cc1ncsc1-c1ccc([C@H](C)NC(=O)[C@@H]2CC3CN2C(=O)C(C(C)(C)C)NC(=O)COCCCOCCC(CCOc2ccc(N4C(=S)N(c5ccc(C#N)c(C(F)(F)F)c5)C(=O)C4(C)C)cc2)OC(=O)CC/C=C/CCC(=O)O3)cc1 (stereo partly drawn) [Example 619, (3S,25R,27S,E)-3-(tert-butyl)-14-(2-(4-(3-(4-cyano-3-(trifluoromethyl)phenyl)-5,5-dimethyl-4-oxo-2-thioxoimidazolidin-1-yl)phenoxy)ethyl)-N-((S)-1-(4-(4-methylthiazol-5-yl)phenyl)ethyl)-2,5,16,23-tetraoxo-7,11,15,24-tetraoxa-1,4-diazabicyclo[23.2.1]oct-acos-19-ene-27-carboxamide] | < 25% | > 501 nM
3 |  |  |  | Cc1ncsc1-c1ccc([C@H](C)NC(=O)[C@@H]2CC3CN2C(=O)C(C(C)(C)C)NC(=O)COCCCOCCC(CCOc2ccc(N4C(=S)N(c5ccc(C#N)c(C(F)(F)F)c5)C(=O)C4(C)C)cc2)OC(=O)CC/C=C/CCC(=O)O3)cc1 (stereo partly drawn) [Example 620, (3S,25R,27S,E)-3-(tert-butyl)-14-(2-(4-(3-(4-cyano-3-(trifluoroemthyl)phenyl)-5,5-dimethyl-4-oxo-2-thioxoimidazolidin-1-yl)phenoxy)ethyl)-N-((S)-1-(4-(4-methylthiazol-5-yl)phenyl)ethyl)-2,5,16,23-tetraoxo-7,11,15,24-tetraoxa-1,4-diazabicyclo[23.2.1]oct-acos-19-ene-27-carboxamide] |  | > 501 nM
4 |  |  |  | Cc1ncsc1-c1ccc([C@H](C)NC(=O)[C@@H]2C[C@@H]3CN2C(=O)[C@H](C(C)(C)C)NC(=O)COCCCOCCC(CCOc2ccc(N4C(=S)N(c5ccc(C#N)c(C(F)(F)F)c5)C(=O)C4(C)C)cc2)OC(=O)CCc2cn(nn2)CCCCCC(=O)O3)cc1 (stereo partly drawn) [Example 621, (93R,95S,11S,Z)-11-(tert-butyl)-22-(2-(4-(3-(4-cyano-3-(trifluoromethyl)phenyl)-5,5-dimethyl-4-oxo-2-thioxoimidazolidin-1-yl)phenoxy)ethyl)-N-((S)-1-(4-(4-methylthiazol-5-yl)phenyl)ethyl)-7,10,13,24-tetraoxo-11H-8,15,19,23-tetraoxa-12-aza-1(1,4)-triazola-9(3,1)-pyrrolidinacyclohexaco-saphane-95-carboxamide] | < 25% | > 501 nM
5 |  |  |  | Cc1ncsc1-c1ccc([C@H](C)NC(=O)[C@@H]2C[C@@H](O)CN2C(=O)[C@@H](NC(=O)CN2CCO[C@H](CN3CCO[C@@H](COc4ccc(N5C(=S)N(c6ccc(C#N)c(C(F)(F)F)c6)C(=O)C5(C)C)cc4)C3)C2)C(C)(C)C)cc1 [Example 622, (2S,4R)-1-((S)-2-(2-((R)-2-(((R)-2-((4-(3-(4-cyano-3-(trifluoromethyl)phenyl)-5,5-dimethyl-4-oxo-2-thioxoimidazolidin-1-yl)phenoxy)methyl)mor-pholino)methyl)mor-pholino)acetamido)-3,3-dimethylbutanoyl)-4-hydroxy-N-((S)-1-(4-(4-methylthiazol-5-yl)phenyl)ethyl)pyrrolidine-2-carboxamide] | < 25% | > 501 nM
6 | < 50 nM | > 71% |  | Cc1ncsc1-c1ccc([C@H](C)NC(=O)C2C[C@@H](O)CN2C(=O)C(NC(=O)CN2CCC(OCCOc3ccc(C(=O)N[C@H]4C(C)(C)[C@H](Oc5ccc(C#N)c(Cl)c5)C4(C)C)cc3)CC2)C(C)(C)C)cc1 (stereo partly drawn) [Example 623, (2S,4R)-1-((S)-2-(2-(4-(2-(4-(((1r,3r)-3-(3-chloro-4-cyanophenoxy)-2,2,4,4-tetramethylcyclobutyl)carbamoyl)phenoxy)eth-oxy)piperidin-1-yl)acetamido)-3,3-dimethylbutanoyl)-4-hydroxy-N-((S)-1-(4-(4-methylthiazol-5-yl)phenyl)ethyl)pyrrolidine-2-carboxamide] |  | 
7 | > 501 nM | < 25% |  | Cc1ncsc1-c1ccc([C@H](C)NC(=O)[C@@H]2CC(O)CN2C(=O)[C@H](C(C)C)n2nccc2OCCCCCNc2ccc(C(=O)N[C@H]3C(C)(C)[C@H](Oc4ccc(C#N)c(Cl)c4)C3(C)C)cc2)cc1 (stereo partly drawn) [Example 624, (2S,4R)-1-((S)-2-(5-((5-((4-(((1r,3r)-3-(3-chloro-4-cyanophenoxy)-2,2,4,4-tetramethylcyclobutyl)carbamoyl)phenyl)amino)pentyl)oxy)-1H-pyrazol-1-yl)-3-methylbutanoyl)-4-hydroxy-N-((S)-1-(4-(4-methylthiazol-5-yl)phenyl)ethyl)pyrrolidine-2-carboxamide] |  | 
8 | > 501 nM |  | ++ (26% ≤ Dmax ≤ 50%) | Cc1ncsc1-c1ccc([C@H](C)NC(=O)[C@@H]2CC(O)CN2C(=O)[C@H](C(C)C)n2nccc2OCCCCCNc2ccc(C(=O)N[C@H]3C(C)(C)[C@H](Oc4ccc(C#N)c(Cl)c4)C3(C)C)cc2)cc1 (stereo partly drawn) [Example 625, (2S,4R)-1-((R)-2-(5-((5-((4-(((1r,3r)-3-(3-chloro-4-cyanophenoxy)-2,2,4,4-tetramehtylcyclobutyl)carbamoyl)phenyl)amino)pentyl)oxy)-1H-pyrazol-1-yl)-3-methylbutanoyl)-4-hydroxy-N-((S)-1-(4-(4-methylthiazol-5-yl)phenyl)ethyl)pyrrolidine-2-carboxamide] |  | 
9 |  |  |  | Cc1ncsc1-c1ccc([C@H](C)NC(=O)[C@@H]2C[C@@H](O)CN2C(=O)[C@H](C(C)C)n2cc(Oc3ccc(OC4CCC(Oc5ccc(N6C(=S)N(c7ccc(C#N)c(C(F)(F)F)c7)C(=O)C6(C)C)cc5)CC4)nc3)cn2)cc1 (stereo partly drawn) [Example 627, (2S,4R)-1-((S)-2-(4-((6-((4-(4-(3-(4-cyano-3-(trifluoromethyl)phenyl)-5,5-dimethyl-4-oxo-2-thioxoimidazolidin-1-yl)phenoxy)cyclohexyl)oxy)pyridin-3-yl)oxy)-1H-pyrazol-1-yl)-3-methylbutanoyl)-4-hydroxy-N-((S)-1-(4-(4-methylthiazol-5-yl)phenyl)ethyl)pyrrolidine-2-carboxamide] | 26 to 50% | > 501 nM
10 |  |  |  | Cc1ncsc1-c1ccc([C@H](C)NC(=O)[C@@H]2C[C@@H](O)CN2C(=O)[C@@H](C(C)C)n2cc(Oc3ccc(OC4CCC(Oc5ccc(N6C(=S)N(c7ccc(C#N)c(C(F)(F)F)c7)C(=O)C6(C)C)cc5)CC4)nc3)cn2)cc1 (stereo partly drawn) [Example 628, (2S,4R)-1-((R)-2-(4-((6-((4-(4-(3-(4-cyano-3-(trifluoromethyl)phenyl)-5,5-dimethyl-4-oxo-2-thioxoimidazolidin-1-yl)phenoxy)cyclohexyl)oxy)pyridin-3-yl)oxy)-1H-pyrazol-1-yl)-3-methylbutanoyl)-4-hydroxy-N-((S)-1-(4-(4-methylthiazol-5-yl)phenyl)ethyl)pyrrolidine-2-carboxamide] | 26 to 50% | > 501 nM
11 |  |  |  | Cc1ncsc1-c1ccc([C@H](C)NC(=O)C2CC3CN2C(=O)C(C(C)(C)C)NC(=O)COCCCOCCC(CCOc2ccc(N4C(=O)N(c5ccc(C#N)c(C(F)(F)F)c5)C(=O)C4(C)C)cc2)OC(=O)CCCCCn2cc(nn2)CCC(=O)O3)cc1 (stereo partly drawn) [Example 629, (63R,8S,Z)-8-(tert-butyl)-19-(2-(4-(3-(4-cyano-3-(trifluoromethyl)phenyl)-5,5-dimethyl-4-oxo-2-thioxoimidazolidin-1-yl)phenoxy)ethyl)-N-((S)-1-(4-(4-methylthiazol-5-yl)phenyl)ethyl)-4,7,10,21-tetraoxo-11H-5,12,16,20-tetraoxa-9-aza-1(4,1)-triazola-6(3,1)-pyrrolidineacyclohexaco-saphane-65-carboxamide] | 26 to 50% | 51 to 500 nM
